The text below walks through data of ChEMBL document CHEMBL1201862, “PubChem BioAssay data set” (2004).

Among the test systems are 786-0; DMS-273; EKVX; HCC 2998; HCT-116; HOP-18; HOP-92; HT-29; M14; NCI-H226; NCI-H460; OVCAR-5; SF-295; SK-OV-3; SN12C; UACC-62; UO-31; KM-20L2.
Common to all, as to assay: growth of human tumour cells (NCI), 48 h

Each structure is given as a SMILES string.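 Cells were grown in 96-well plates and exposed to each compound for 48 hours at five concentrations; endpoints were interpolated linearly between bracketing concentrations, or set to the highest concentration if not reached. Here, GI50 denotes the concentration required for 50% inhibition of growth.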 The source made the active and inactive calls. No stated cut-off is given here; in the data, active = GI50 up to about 1.1 µM and inactive = higher.

Take `CN(C)c1ccc2c(c1)C(=O)N(OS(=O)(=O)c1ccc([N+](=O)[O-])cc1)C2=O`: the GI50 in the assay on 786-0 is 19.3 µM (inactive); with DMS-273, 19.9 µM (inactive); in the assay with EKVX it was 42.7 µM (inactive); with HCC 2998, 24.6 µM (inactive); with HCT-116 it was > 10 µM (inactive); in the assay on HOP-18, > 100 µM (inactive). The GI50 is > 10 µM (inactive) with HOP-92; 21.7 µM (inactive) with HT-29; 17.4 µM (inactive) with M14; 72.8 µM (inactive) in the assay with NCI-H226; 49.3 µM (inactive) in the assay on NCI-H460; 25.4 µM (inactive) with OVCAR-5. For the same compound, the GI50 is 25.2 µM (inactive) in the assay on SF-295; > 100 µM (inactive) with SK-OV-3; 22.5 µM (inactive) with SN12C; 17.1 µM (inactive) in the assay with UACC-62; 23.1 µM (inactive) with UO-31.
On to `O=c1oc2ccccc2c(O)c1C(C/C(CCN1CCCC1)=N\Nc1ccccc1)c1ccccc1` (stereo not drawn), for which the GI50 with 786-0 is > 100 µM (inactive); in the assay with EKVX it was > 100 µM (inactive); in the assay with HCC 2998, 23.6 µM (inactive); in the assay on HCT-116, 82.6 µM (inactive); in the assay on HOP-18, 91.8 µM (inactive); with HOP-92, 16.3 µM (inactive). In addition, the GI50 in the assay on HT-29 was 62.8 µM (inactive); in the assay on KM-20L2, > 100 µM (inactive); with M14, 93.1 µM (inactive); with NCI-H226, 71.9 µM (inactive); in the assay with NCI-H460, 70.8 µM (inactive); in the assay with OVCAR-5, > 100 µM (inactive). Besides, the GI50 with SF-295 is 55.7 µM (inactive); with SK-OV-3, 94.4 µM (inactive); with SN12C, 74.6 µM (inactive); in the assay on UACC-62, 76 µM (inactive); with UO-31, 53.5 µM (inactive).
On to `COc1cc(Nc2cnc3cc(N)ccc3n2)cc(OC)c1OC`, for which the GI50 with 786-0 was > 100 µM (inactive); in the assay with DMS-273, 11.7 µM (inactive); with EKVX, 58.6 µM (inactive); in the assay with HCC 2998 it was 50.1 µM (inactive); with HCT-116, > 100 µM (inactive); in the assay with HOP-18 it was 51.3 µM (inactive). Also, the GI50 in the assay on HOP-92 is > 100 µM (inactive); in the assay with HT-29 it was 62.5 µM (inactive); in the assay on KM-20L2, > 100 µM (inactive); with M14 it was 98.6 µM (inactive); in the assay on NCI-H460, 34.1 µM (inactive); with OVCAR-5, > 100 µM (inactive). The GI50 in the assay with SF-295 was 72.4 µM (inactive); in the assay with SK-OV-3 it was 69.7 µM (inactive); with SN12C, 94.6 µM (inactive); in the assay with UACC-62 it was 64.4 µM (inactive); in the assay with UO-31, 61.2 µM (inactive).
Take `CC(C)CCCC(C)C1CCC2C3CC([N+](=O)[O-])=C4CC(O)CCC4(C)C3CCC12C` (stereo not drawn): the GI50 is 16.9 µM (inactive) with 786-0; 12.6 µM (inactive) in the assay with DMS-273; 27 µM (inactive) in the assay with EKVX; 20.2 µM (inactive) with HCC 2998; 14.8 µM (inactive) in the assay with HCT-116; 23.3 µM (inactive) in the assay with HOP-92. For the same compound, the GI50 in the assay with HT-29 is 17.9 µM (inactive); in the assay on KM-20L2, 18.5 µM (inactive); with M14, 13.4 µM (inactive); in the assay with SF-295 it was 14.2 µM (inactive); in the assay with SN12C, 18.2 µM (inactive); with UACC-62 it was 19.9 µM (inactive).
Turning to `O=S(=O)(SCCCCSS(=O)(=O)c1ccc(Cl)cc1)c1ccc(Cl)cc1`, the GI50 in the assay with 786-0 was 9.68 µM (inactive); in the assay with DMS-273 it was 10.3 µM (inactive); in the assay on EKVX, 4.67 µM (inactive); with HCC 2998, 18.7 µM (inactive); in the assay with HCT-116, 11 µM (inactive); with HOP-18, 13.6 µM (inactive). Besides, the GI50 in the assay on HOP-92 was 8.51 µM (inactive); in the assay on HT-29 it was 17.3 µM (inactive); in the assay on KM-20L2, 18 µM (inactive); in the assay with M14 it was 14.6 µM (inactive); with NCI-H460, 14.4 µM (inactive); in the assay with OVCAR-5, 16.7 µM (inactive). The GI50 with SF-295 is 3.92 µM (inactive); in the assay with SK-OV-3 it was 15.3 µM (inactive); in the assay with SN12C it was 9.23 µM (inactive); in the assay with UACC-62, 12.2 µM (inactive); with UO-31, 9.04 µM (inactive).
On to `OCC(O)CNc1ccnc2cc(Cl)ccc12` (stereo not drawn), for which the GI50 with 786-0, in the assay with EKVX, in the assay with HCC 2998, in the assay on HCT-116, in the assay with HOP-18 and in the assay on HOP-92 was > 100 µM (inactive) each time. Further, the GI50 with HT-29, in the assay with KM-20L2, in the assay with M14, with NCI-H226, in the assay with NCI-H460 and in the assay with OVCAR-5 was > 100 µM (inactive) each time. In addition, the GI50 in the assay on SF-295, with SK-OV-3, in the assay with SN12C, with UACC-62 and with UO-31 was > 100 µM (inactive) throughout.
`Nc1nc(CCl)nc(Nc2ccccc2)n1`: the GI50 with 786-0 is 2 µM (inactive); in the assay with DMS-273 it was 4.16 µM (inactive); in the assay with HCC 2998 it was 17.4 µM (inactive); in the assay with HCT-116 it was 19.5 µM (inactive); in the assay with HOP-92, 18.2 µM (inactive); in the assay with HT-29, 12.5 µM (inactive). Further, the GI50 in the assay with KM-20L2 is 18.6 µM (inactive); in the assay with M14, 16.9 µM (inactive); in the assay with NCI-H226 it was 26.2 µM (inactive); in the assay on NCI-H460, 17.3 µM (inactive); with OVCAR-5 it was 19.9 µM (inactive); with SF-295 it was 23.8 µM (inactive). The GI50 in the assay with UACC-62 is 19 µM (inactive); with UO-31, 28.5 µM (inactive).
With `O=C(NCc1cccnc1)C1COc2cc(-c3cc(=O)c4ccccc4o3)ccc2O1` (stereo not drawn), the GI50 is 7.19 µM (inactive) in the assay with 786-0; > 81.5 µM (inactive) with EKVX; > 100 µM (inactive) in the assay with HCC 2998; 21.7 µM (inactive) in the assay on HCT-116; > 79.4 µM (inactive) in the assay on HOP-18; > 75.3 µM (inactive) in the assay with HOP-92. Moreover, the GI50 with HT-29 is > 87.3 µM (inactive); in the assay with KM-20L2 it was > 100 µM (inactive); in the assay on M14 it was 5.27 µM (inactive); with NCI-H226, 3.62 µM (inactive); with NCI-H460, 51.4 µM (inactive); in the assay on OVCAR-5, > 100 µM (inactive). For the same compound, the GI50 is 7.6 µM (inactive) with SF-295; > 100 µM (inactive) in the assay with SK-OV-3; 4.34 µM (inactive) in the assay on SN12C; 30.4 µM (inactive) in the assay with UACC-62; > 43.9 µM (inactive) in the assay with UO-31.
`COc1cc(C=O)c(-c2c(C=O)ccc3c2OCO3)c(OC)c1OC`: the GI50 in the assay with 786-0 was > 100 µM (inactive); in the assay with DMS-273, 72.6 µM (inactive); in the assay on EKVX, > 100 µM (inactive); with HCC 2998, > 100 µM (inactive); with HCT-116, > 100 µM (inactive); with HOP-18, > 100 µM (inactive). For the same compound, the GI50 with HT-29 was 69.2 µM (inactive); in the assay on KM-20L2, > 100 µM (inactive); with M14, 74.1 µM (inactive); with NCI-H226, > 100 µM (inactive); in the assay with NCI-H460, > 100 µM (inactive); in the assay with OVCAR-5, > 100 µM (inactive). Further, the GI50 with SF-295 was 60.4 µM (inactive); in the assay with SK-OV-3, > 100 µM (inactive); in the assay on SN12C it was > 100 µM (inactive); with UACC-62, 62.5 µM (inactive); in the assay with UO-31, > 100 µM (inactive).
For the compound `CCNC(=O)c1ccc(C)c(/N=N/N(C)C)c1`, the GI50 in the assay on 786-0, with DMS-273, in the assay on EKVX, with HCC 2998, with HCT-116 and in the assay with HOP-92 was > 100 µM (inactive) each time. The GI50 in the assay with HT-29, in the assay on KM-20L2, in the assay on M14, in the assay on NCI-H460, in the assay with SF-295 and in the assay with SN12C was > 100 µM (inactive) throughout. In addition, the GI50 with UACC-62 and in the assay on UO-31 was > 100 µM (inactive) throughout.
Consider `COc1ccc(NCc2cc(OC)c(OC)c(OC)c2)cc1`, for which the GI50 was 0.647 µM (active) in the assay with 786-0; 0.143 µM (active) in the assay on DMS-273; 4.97 µM (inactive) in the assay on EKVX; 0.277 µM (active) in the assay on HCC 2998; 0.367 µM (active) with HCT-116; 2.15 µM (inactive) in the assay with HOP-92. Besides, the GI50 in the assay on HT-29 is 0.176 µM (active); with KM-20L2 it was 0.228 µM (active); in the assay on M14 it was 0.457 µM (active); in the assay on NCI-H460 it was 0.359 µM (active); with SF-295 it was 0.242 µM (active); in the assay on SK-OV-3 it was 0.504 µM (active). For the same compound, the GI50 in the assay with SN12C is 0.53 µM (active); in the assay on UACC-62 it was 0.271 µM (active).
In the case of `CC1(CO)OC(n2cc(C(=O)NC(=O)OCc3ccccc3)c(=O)[nH]c2=O)CC1O` (stereo not drawn), the GI50 with 786-0, in the assay with DMS-273, in the assay on HCT-116, with HOP-18, in the assay on HOP-92 and in the assay on HT-29 was > 100 µM (inactive) each time. Also, the GI50 in the assay with KM-20L2, in the assay on M14, in the assay with NCI-H226, in the assay on NCI-H460, with SF-295 and in the assay on SK-OV-3 was > 100 µM (inactive) each time. The GI50 in the assay with SN12C, in the assay with UACC-62 and in the assay on UO-31 was > 100 µM (inactive) each time.
Consider `Nc1nc(N)c(-c2ccccc2)c(C(=O)Nc2ccccc2)n1`, for which the GI50 with 786-0, in the assay on EKVX, in the assay with HCT-116, in the assay on HOP-18, in the assay on HOP-92 and in the assay on HT-29 was > 100 µM (inactive) throughout. The GI50 with KM-20L2, in the assay with M14, in the assay on NCI-H226, in the assay on NCI-H460, with OVCAR-5 and in the assay on SK-OV-3 was > 100 µM (inactive) throughout. For the same compound, the GI50 with SN12C, in the assay on UACC-62 and with UO-31 was > 100 µM (inactive) each time.
